Read-outs that look alike come from different tables or passages of the source.
What was measured:
[1] = target: T1, NRAS G12C (Homo sapiens, UniProt P01111+P62937, G12C); experiment: Ras-Raf disruption/FRET/MOA assay, NRAS G12C; format: biochemical
T1 construct: His6
How it was run: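 Disruption of Ras:RAF binding was read as a drop in TR-FRET ratio versus DMSO controls. The buffer was 25 mM HEPES pH 7.3, 0.002% Tween20, 0.1% BSA, 100 mM NaCl and 5 mM MgCl2. Compounds were tested as a 10-point 3-fold dilution series from 30 μM. Detection used 10 nM anti-His Eu-W1024 and 50 nM anti-GST allophycocyanin.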

[2] = target: KRAS G12D (Homo sapiens, UniProt P01116+P62937, G12D); experiment: Ras-Raf disruption/FRET/MOA assay, KRAS G12D; format: biochemical
Chain of KRAS G12D (P01116 1-169 isoform P01116-2 G12D limits assumed): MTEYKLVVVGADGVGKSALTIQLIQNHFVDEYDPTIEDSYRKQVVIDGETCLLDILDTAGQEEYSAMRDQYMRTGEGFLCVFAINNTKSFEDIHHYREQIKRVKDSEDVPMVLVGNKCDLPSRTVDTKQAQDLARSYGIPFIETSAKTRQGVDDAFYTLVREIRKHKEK
Chain of KRAS G12D (P62937 whole entry): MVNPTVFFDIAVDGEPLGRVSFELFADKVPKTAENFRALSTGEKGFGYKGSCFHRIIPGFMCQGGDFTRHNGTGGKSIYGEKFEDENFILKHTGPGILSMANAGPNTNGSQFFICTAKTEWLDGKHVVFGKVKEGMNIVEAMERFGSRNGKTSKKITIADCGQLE
How it was run: (§1)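 Buffer 25 mM HEPES pH 7.3, 100 mM NaCl, 5 mM MgCl2, 0.1% BSA, 0.002% Tween20; His6-KRAS-GMPPNP 12.5 nM, CypA 25 μM, GST-BRAF^RBD 50 nM; cpd 10-pt 3-fold from 30 μM; 3 h 25° C; then Eu/APC antibodies 1.5 h; TR-FRET ratio vs DMSO.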

[3] = target: T2, NRAS WT (Homo sapiens, UniProt P01111+P62937); experiment: Ras-Raf disruption/FRET/MOA assay, NRAS WT; format: biochemical
T2 construct: His6
T2 sequence (P01111 whole entry): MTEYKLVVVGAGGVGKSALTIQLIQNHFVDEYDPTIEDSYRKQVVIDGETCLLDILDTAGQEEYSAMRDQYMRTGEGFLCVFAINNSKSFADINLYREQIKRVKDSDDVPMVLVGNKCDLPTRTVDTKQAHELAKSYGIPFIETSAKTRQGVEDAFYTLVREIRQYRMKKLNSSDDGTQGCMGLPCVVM
T2 sequence (P62937 whole entry): as the sequence (P62937 whole entry) above
Source text: (§2) Disruption of B-Raf Ras-Binding Domain (BRAF^RBD) Interaction with K-Ras by Compounds of the Invention (Also Called a FRET Assay or an MOA Assay)
(§3) Note—The following protocol describes a procedure for monitoring disruption of K-Ras G12C (GMP-PNP) binding to BRAF^RBD by a compound of the invention. This protocol may also be executed substituting other Ras proteins or nucleotides, such as K-Ras G12D and K-Ras G13D.
(§4) The purpose of this biochemical assay was to measure the ability of test compounds to facilitate ternary complex formation between a nucleotide-loaded K-Ras isoform and Cyclophilin A; the resulting ternary complex disrupts binding to a BRAF^RBD construct, inhibiting K-Ras signaling through a RAF effector.
(§5) In assay buffer containing 25 mM HEPES pH 7.3, 0.002% Tween20, 0.1% BSA, 100 mM NaCl and 5 mM MgCl2, tagless Cyclophilin A, His6-K-Ras-GMPPNP, and GST-BRAF^RBD were combined in a 384-well assay plate at final concentrations of 25 μM, 12.5 nM, and 50 nM, respectively. Compound was present in plate wells as a 10-point 3-fold dilution series starting at a final concentration of 30 μM. After incubation at 25° C. for 3 hours, a mixture of anti-His Eu-W1024 and anti-GST allophycocyanin was then added to assay sample wells at final concentrations of 10 nM and 50 nM, respectively, and the reaction incubated for an additional 1.5 hours. […] Compounds that facilitate disruption of a K-Ras:RAF complex were identified as those eliciting a decrease in the TR-FRET ratio relative to DMSO control wells.

[4] = system: AsPC-1 (K-Ras G12D); experiment: CellTiter-Glo cell viability assay, AsPC-1; format: cell-based; conditions: Homo sapiens, ASPC1, 120 h
How it was run: (§6)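 Luminescent viability readout on day 5, plates first brought to room temperature for ~30 min; compounds added straight to plated RAS-mutant cells. Values expressed as percent of mean DMSO signal, curves fitted with a four-parameter logistic model.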

[5] = target: KRAS G12C (Homo sapiens, UniProt P01116+P62937, G12C); experiment: Ras-Raf disruption/FRET/MOA assay, KRAS G12C; format: biochemical
Chain of KRAS G12C (P01116 1-169 isoform P01116-2 G12C limits assumed): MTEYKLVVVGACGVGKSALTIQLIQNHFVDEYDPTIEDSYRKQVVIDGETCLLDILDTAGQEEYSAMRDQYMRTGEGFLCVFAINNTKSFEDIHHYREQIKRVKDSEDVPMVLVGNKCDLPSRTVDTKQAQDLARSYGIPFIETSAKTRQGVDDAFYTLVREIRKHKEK
Chain of KRAS G12C (P62937 whole entry): as the sequence (P62937 whole entry) above
How it was run: as §1

[6] = target: KRAS G12S (Homo sapiens, UniProt P01116+P62937, G12S); experiment: Ras-Raf disruption/FRET/MOA assay, KRAS G12S; format: biochemical
Chain of KRAS G12S (P01116 1-169 isoform P01116-2 G12S limits assumed): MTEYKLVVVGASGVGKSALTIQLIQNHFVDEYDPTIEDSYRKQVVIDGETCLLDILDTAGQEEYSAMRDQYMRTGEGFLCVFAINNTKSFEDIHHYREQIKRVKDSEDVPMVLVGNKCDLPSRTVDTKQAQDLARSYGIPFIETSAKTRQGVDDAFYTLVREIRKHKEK
Chain of KRAS G12S (P62937 whole entry): as the sequence (P62937 whole entry) above
How it was run: as §1

[7] = target: KRAS G13D (Homo sapiens, UniProt P01116+P62937, G13D); experiment: Ras-Raf disruption/FRET/MOA assay, KRAS G13D; format: biochemical
Chain of KRAS G13D (P01116 1-169 isoform P01116-2 G13D limits assumed): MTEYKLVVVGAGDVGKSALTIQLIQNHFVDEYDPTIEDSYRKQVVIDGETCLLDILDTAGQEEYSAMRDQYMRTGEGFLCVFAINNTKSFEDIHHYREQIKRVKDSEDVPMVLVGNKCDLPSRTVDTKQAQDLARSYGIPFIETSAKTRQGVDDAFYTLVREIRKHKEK
Chain of KRAS G13D (P62937 whole entry): as the sequence (P62937 whole entry) above
How it was run: as §1

[8] = target: T3, NRAS Q61K (Homo sapiens, UniProt P01111+P62937, Q61K); experiment: Ras-Raf disruption/FRET/MOA assay, NRAS Q61K; format: biochemical
T3 construct: His6
T3 sequence (P01111 whole entry Q61K): as the sequence (P01111 whole entry) above, with Q61K counted along it
T3 sequence (P62937 whole entry): as the sequence (P62937 whole entry) above
Source text: as §2, §3, §4, §5

[9] = target: KRAS WT (Homo sapiens, UniProt P01116+P62937); experiment: Ras-Raf disruption/FRET/MOA assay, KRAS WT; format: biochemical
Chain of KRAS WT (P01116 1-169 isoform P01116-2 limits assumed): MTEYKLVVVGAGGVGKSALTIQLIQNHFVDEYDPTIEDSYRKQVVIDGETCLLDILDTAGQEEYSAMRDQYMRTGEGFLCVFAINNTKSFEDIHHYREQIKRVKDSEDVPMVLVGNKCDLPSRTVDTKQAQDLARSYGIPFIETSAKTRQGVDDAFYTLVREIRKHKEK
Chain of KRAS WT (P62937 whole entry): as the sequence (P62937 whole entry) above
How it was run: as §1

[10] = system: NCI-H358 (K-Ras G12C); experiment: CellTiter-Glo cell viability assay, H358; format: cell-based; conditions: Homo sapiens, NCI-H358, 120 h
How it was run: as §6

[11] = target: KRAS G13C (Homo sapiens, UniProt P01116+P62937, G13C); experiment: Ras-Raf disruption/FRET/MOA assay, KRAS G13C; format: biochemical
Chain of KRAS G13C (P01116 1-169 isoform P01116-2 G13C limits assumed): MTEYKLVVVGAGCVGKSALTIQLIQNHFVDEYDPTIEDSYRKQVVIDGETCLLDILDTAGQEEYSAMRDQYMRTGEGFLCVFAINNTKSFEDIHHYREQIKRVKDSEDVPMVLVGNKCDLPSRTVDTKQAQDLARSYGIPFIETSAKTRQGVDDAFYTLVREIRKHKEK
Chain of KRAS G13C (P62937 whole entry): as the sequence (P62937 whole entry) above
How it was run: as §1

[12] = target: KRAS G12V (Homo sapiens, UniProt P01116+P62937, G12V); experiment: Ras-Raf disruption/FRET/MOA assay, KRAS G12V; format: biochemical
Chain of KRAS G12V (P01116 1-169 isoform P01116-2 G12V limits assumed): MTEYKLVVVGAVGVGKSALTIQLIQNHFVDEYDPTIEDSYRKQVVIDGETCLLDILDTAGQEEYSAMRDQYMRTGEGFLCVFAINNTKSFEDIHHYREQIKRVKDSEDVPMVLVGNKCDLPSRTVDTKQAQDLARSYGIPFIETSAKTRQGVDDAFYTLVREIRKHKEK
Chain of KRAS G12V (P62937 whole entry): as the sequence (P62937 whole entry) above
How it was run: as §1

[13] = target: T4, NRAS Q61R (Homo sapiens, UniProt P01111+P62937, Q61R); experiment: Ras-Raf disruption/FRET/MOA assay, NRAS Q61R; format: biochemical
T4 construct: His6
T4 sequence (P01111 whole entry Q61R): as the sequence (P01111 whole entry) above, with Q61R counted along it
T4 sequence (P62937 whole entry): as the sequence (P62937 whole entry) above
Source text: as §2, §3, §4, §5

[14] = target: KRAS Q61H (Homo sapiens, UniProt P01116+P62937, Q61H); experiment: Ras-Raf disruption/FRET/MOA assay, KRAS Q61H; format: biochemical
Chain of KRAS Q61H (P01116 1-169 isoform P01116-2 Q61H limits assumed): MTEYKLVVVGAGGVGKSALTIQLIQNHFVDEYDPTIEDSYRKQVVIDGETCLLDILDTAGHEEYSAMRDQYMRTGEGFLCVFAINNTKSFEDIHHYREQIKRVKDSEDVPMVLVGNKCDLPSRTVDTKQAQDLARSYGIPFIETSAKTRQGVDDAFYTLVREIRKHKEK
Chain of KRAS Q61H (P62937 whole entry): as the sequence (P62937 whole entry) above
Source text: as §2, §3, §4, §5

[15] = system: AsPC-1 (K-Ras G12D); experiment: Potency assay: pERK in AsPC-1 cells; format: cell-based; conditions: Homo sapiens
[16] = NRAS G12C, read-out: NRAS G12C FRET data IC50
[17] = disruption of BRAF RBD binding, with Cyclophilin A, read-out: KRAS G12D FRET IC50
[18] = NRAS WT, read-out: NRAS WT FRET data IC50
[19] = AsPC-1, K-Ras G12D, 5-day treatment, read-out: AsPC-1 Cell Viability IC50
[20] = disruption of BRAF RBD binding, with Cyclophilin A, read-out: KRAS G12C FRET IC50
[21] = disruption of BRAF RBD binding, with Cyclophilin A, read-out: KRAS G12S FRET IC50
[22] = disruption of BRAF RBD binding, with Cyclophilin A, read-out: KRAS G13D FRET IC50
[23] = NRAS Q61K, read-out: NRAS Q61K FRET data IC50
[24] = disruption of BRAF RBD binding, with Cyclophilin A, read-out: KRAS WT FRET IC50
[25] = NCI-H358, K-Ras G12C, 5-day treatment, read-out: H358 Cell Viability IC50
[26] = disruption of BRAF RBD binding, with Cyclophilin A, read-out: KRAS G13C FRET IC50
[27] = disruption of BRAF RBD binding, with Cyclophilin A, read-out: KRAS G12V FRET IC50
[28] = NRAS Q61R, read-out: NRAS Q61R FRET data IC50
[29] = KRAS Q61H, read-out: KRAS Q61H FRET data IC50
[30] = ASPC1, AsPC-1 cells, K-Ras G12D, read-out: pERK EC50 (AsPC-1 KRAS G12D)

T1 sequence (P01111 whole entry G12C): as the sequence (P01111 whole entry) above, with G12C counted along it
T1 sequence (P62937 whole entry): as the sequence (P62937 whole entry) above

| SMILES | IC50 [1, 16] [µM] | IC50 [2, 17] [µM] | IC50 [3, 18] [µM] | IC50 [4, 19] [µM] | IC50 [5, 20] [µM] | IC50 [6, 21] [µM] | IC50 [7, 22] [µM] | IC50 [8, 23] [µM] | IC50 [9, 24] [µM] | IC50 [10, 25] [µM] | IC50 [11, 26] [µM] | IC50 [12, 27] [µM] | IC50 [13, 28] [µM] | IC50 [14, 29] [µM] | EC50 [15, 30] [µM] | also measured |
| --- | --- | --- | --- | --- | --- | --- | --- | --- | --- | --- | --- | --- | --- | --- | --- | --- |
| CCC(C)N(C)C(=O)c1cncc(-c2c3c4cc(ccc4n2CC)-c2cc(O)cc(c2)C[C@H](NC(=O)[C@H](C(C)C)N(C)C(=O)CN(C)C(=O)[C@H]2CN2)C(=O)N2CCC[C@H](N2)C(=O)OCC(C)(C)C3)c1 (some centres unmarked) [Compound 144] | – | – | – | – | – | – | – | – | – | – | – | – | – | – | – | IC50 ([1]; NRAS G12C FRET data IC50, NRAS G12C): 0.01 to 0.1 µM; IC50 [2]: 0.1 to 1 µM; IC50 [3]: 0.1 to 1 µM; IC50 ([4]; read-out: AsPC-1 Cell Viability IC50, AsPC-1, K-Ras G12D, 5-day treatment): 0.1 to 1 µM; IC50 [5]: 0.01 to 0.1 µM; IC50 [6]: 0.1 to 1 µM; IC50 [7]: 0.1 to 1 µM; IC50 [8]: 1 to 10 µM; IC50 [9]: 0.1 to 1 µM; IC50 ([10]; read-out: H358 Cell Viability IC50, NCI-H358, K-Ras G12C, 5-day treatment): 0.01 to 0.1 µM; IC50 [11]: 0.01 to 0.1 µM; IC50 [12]: 0.1 to 1 µM; IC50 [13]: 1 to 10 µM; IC50 [14]: 0.01 to 0.1 µM; EC50 ([15]; ASPC1, read-out: pERK EC50 (AsPC-1 KRAS G12D)): < 5 µM |
| CCn1c(-c2cccnc2[C@H](C)OC)c2c3cc(ccc31)-c1cc(O)cc(c1)C[C@H](NC(=O)[C@H](C(C)C)N1CO[C@]3(CCN(C(=O)[C@H]4CN4)C3)C1=O)C(=O)N1CCC[C@H](N1)C(=O)OCC(C)(C)C2 [Compound 231] | < 0.01 | 0.01 to 0.1 | 0.01 to 0.1 | 0.1 to 1 | < 0.01 | 0.01 to 0.1 | 0.01 to 0.1 | 0.01 to 0.1 | 0.01 to 0.1 | < 0.01 | < 0.01 | 0.01 to 0.1 | 0.1 to 1 | < 0.01 | < 5 | – |
| CCn1c(-c2cccnc2[C@H](C)OC)c2c3cc(ccc31)-c1csc(n1)C[C@H](NC(=O)[C@H](C1CCCC1)N1CC[C@]3(CCN(C(=O)[C@@H]4N[C@@H]4C4CC4)C3)C1=O)C(=O)N1CCC[C@H](N1)C(=O)OCC(C)(C)C2 [Compound 234] | 1 to 10 | 1 to 10 | 1 to 10 | 0.1 to 1 | 0.1 to 1 | 1 to 10 | > 10 | 1 to 10 | 1 to 10 | 0.01 to 0.1 | 1 to 10 | 1 to 10 | 1 to 10 | 1 to 10 | – | – |
| CCn1c(-c2cccnc2[C@H](C)OC)c2c3cc(ccc31)-c1cc(O)cc(c1)C[C@H](NC(=O)[C@H](C(C)C)N1CCCC3(CN(C(=O)[C@@H]4CN4)C3)C1=O)C(=O)N1CCC[C@H](N1)C(=O)OCC(C)(C)C2 [Compound 306] | < 0.01 | 0.1 to 1 | 0.01 to 0.1 | 1 to 10 | < 0.01 | 0.01 to 0.1 | 0.01 to 0.1 | 0.1 to 1 | 0.01 to 0.1 | – | 0.01 to 0.1 | 0.01 to 0.1 | 0.1 to 1 | 0.01 to 0.1 | < 5 | – |
| CCn1c(-c2cccnc2[C@H](C)OC)c2c3cc(ccc31)-c1cc(cc(C(F)F)c1)C[C@H](NC(=O)[C@H](C1CCCC1)N1CC[C@]3(CCN(C(=O)[C@@H]4N[C@@H]4C4CC4)C3)C1=O)C(=O)N1CCC[C@H](N1)C(=O)OCC(C)(C)C2 [Compound 318] | 1 to 10 | 1 to 10 | 1 to 10 | 0.1 to 1 | 0.1 to 1 | 1 to 10 | 1 to 10 | 1 to 10 | 0.1 to 1 | 0.1 to 1 | 0.1 to 1 | 1 to 10 | 1 to 10 | 0.1 to 1 | – | – |
| CCn1c(-c2cccnc2[C@H](C)OC)c2c3cc(ccc31)-c1cc(O)cc(c1)C[C@H](NC(=O)[C@H](C1CCCC1)N1CC[C@@]3(CCN(C(=O)[C@@H]4N[C@@H]4C4CC4)C3)C1=O)C(=O)N1CCC[C@H](N1)C(=O)OCC(C)(C)C2 [Compound 215] | 0.01 to 0.1 | 0.1 to 1 | 0.1 to 1 | 1 to 10 | 0.01 to 0.1 | 0.1 to 1 | 0.1 to 1 | 1 to 10 | 0.1 to 1 | – | 0.01 to 0.1 | 0.1 to 1 | 1 to 10 | 0.01 to 0.1 | < 5 | – |

Reference: patent US11739074B2, “Ras inhibitors” (Revolution Medicines, Inc., priority 2019, dated 2023)
